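48-hour exposure; five concentrations; linearly interpolated endpoints. TGI marks complete inhibition of growth.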

Common to all, as to assay: NCI anticancer screen, dose series, 48 h
Experiment [1] concerns SR leukemia.
For experiment [2], the system named is A549 NSCLC.
Experiment [3] has as its system SK-MEL-5 melanoma.
The subject of experiment [4] is NCI/ADR-RES ovarian.
The subject of experiment [5] is MALME-3M melanoma.
Experiment [6] concerns SW-620 colon.
Experiment [7] concerns SK-MEL-2 melanoma.
Experiment [8] has as its system SNB-19 CNS.
Experiment [9] has as its system SF-295 CNS.
The test system of experiment [10] is MOLT-4 leukemia.

Take `Nc1nc(-c2ccccc2N=NN2CCCC2)nc2ccccc12`: the TGI amounted to 2.38 µM in experiment [1]; 10.5 µM in [2]; 17.8 µM in [3]; 12.2 µM in experiment [4]; 13.5 µM in experiment [5]; 5.96 µM in experiment [6]. Also, the TGI was determined as 28.8 µM in experiment [7], 16.5 µM in experiment [8], 10.5 µM in experiment [9] and 3.52 µM in experiment [10].
On to `C=C(CCC(C)C1CCC2C3=C(C(=O)CC21C)C1(C)CCC(=O)[C@@H](C)C1CC3=O)C(C)C(=O)O` (some centres undefined), for which the TGI is 74.8 µM in experiment [1]; greater than 100 µM in experiment [2]; greater than 100 µM in experiment [3]; greater than 100 µM in [4]; greater than 100 µM in [5]; greater than 100 µM in experiment [6]. Moreover, the TGI was greater than 100 µM in [7], greater than 100 µM in experiment [8], greater than 100 µM in [9] and 74.9 µM in experiment [10].
As for `CC(=O)OCC1OC(n2c3c(c(-c4cccc5ccccc45)c(C#N)c2=S)CCCC3)C(OC(C)=O)C(OC(C)=O)C1OC(C)=O` (centres undefined), the TGI in experiment [1], in [2], in experiment [3], in [4], in [5] and in [6] was greater than 100 µM each time. The TGI in [7], in experiment [8], in experiment [9] and in experiment [10] was greater than 100 µM each time.
As for `CC[N+](C)(CC)CCC(O)(c1ccccc1)c1ccccc1`, the TGI in [1], in [2], in experiment [3], in experiment [4], in experiment [5] and in experiment [6] was greater than 100 µM each time. In addition, the TGI in [7], in [8], in [9] and in [10] was greater than 100 µM each time.
For the molecule `O=C1CCC2(CCO1)OCCO2`, the TGI in [1], in experiment [2], in [3], in [4], in experiment [5] and in [6] was greater than 100 µM each time. For the same molecule, the TGI in experiment [7], in experiment [8], in [9] and in [10] was greater than 100 µM throughout.
In the case of `CC(C)=CCC[C@@H](C)C1=C(Nc2ccccc2Cl)C(O)=C(C)C(=O)C1=O`, the TGI in experiment [1] is greater than 57.6 µM; in [2], 15.7 µM; in experiment [3] it was 10.1 µM; in experiment [4] it was 27.1 µM; in experiment [5], 18.7 µM; in experiment [6] it was greater than 56.4 µM. Moreover, the TGI is 19.2 µM in experiment [7], 26.8 µM in [8], 14 µM in [9] and 25.1 µM in experiment [10].
Turning to `C/C(=N\NC(=S)N1CCCCC1)c1cccc(C)n1`, the TGI was greater than 100 µM in [1]; 10.6 µM in experiment [2]; 0.449 µM in [3]; 0.258 µM in experiment [4]; 2.13 µM in experiment [5]; 18.3 µM in experiment [6]. Further, the TGI in [7] is 22.4 µM; in [8], greater than 36 µM; in [9], greater than 33.4 µM; in experiment [10], greater than 100 µM.
In the case of `O=CC(O)C(O)C(O)C(O)C(=O)NCCCCCCCCCCCCNC(=O)C(O)C(O)C(O)C(O)C=O` (centres undefined), the TGI in experiment [1], in experiment [2], in experiment [3], in [4], in experiment [5] and in experiment [6] was greater than 100 µM throughout. Also, the TGI in experiment [7], in experiment [8], in experiment [9] and in experiment [10] was greater than 100 µM each time.
As to `CC1(C)OCC(C(O)C2OC(C)(C)OC2C=O)O1` (centres undefined), the TGI in [1], in experiment [2], in experiment [3], in experiment [4], in [5] and in [6] was greater than 100 µM each time. Moreover, the TGI in experiment [7], in [8], in experiment [9] and in experiment [10] was greater than 100 µM in each case.
`c1ccc(CCNCc2ccco2)nc1`: the TGI in experiment [1], in experiment [2], in experiment [3], in [4], in experiment [5] and in [6] was greater than 100 µM throughout. The TGI in experiment [7], in experiment [8], in experiment [9] and in experiment [10] was greater than 100 µM in each case.
As for `COC1OC(Cc2nnc(C)o2)C(OCc2ccccc2)C(OCc2ccccc2)C1OCc1ccccc1` (centres undefined), the TGI in [1] was 29.6 µM; in experiment [2], greater than 100 µM; in [3], 30 µM; in experiment [4], 70 µM; in experiment [5] it was 38.9 µM; in experiment [6], greater than 100 µM. Further, the TGI in experiment [7] was 29.2 µM; in experiment [8], greater than 100 µM; in experiment [9], 52.6 µM; in experiment [10] it was 33 µM.
Regarding `CCc1c(Cc2cccc3ccccc23)n2c(nc1=O)SCC2OCCO` (centres undefined), the TGI in experiment [1] was 89.4 µM; in [2], greater than 100 µM; in experiment [3], greater than 100 µM; in experiment [4], greater than 100 µM; in experiment [5], greater than 100 µM; in experiment [6] it was greater than 100 µM. Moreover, the TGI in experiment [7], in experiment [8] and in experiment [10] was greater than 100 µM throughout.
For `N=C1N(S(=O)(=O)c2ccccc2)[C@@H](Cc2ccccc2)[C@H](c2ccccc2)C1(c1ccccc1)c1ccccc1`, the TGI in [1], in experiment [2], in experiment [3], in experiment [4], in [5] and in [6] was greater than 100 µM each time. The TGI in experiment [7], in [8], in experiment [9] and in [10] was greater than 100 µM throughout.
With `CCOC(=O)C1(C(=O)OCC)[C@H](c2ccccc2)C2=NO[C@@H]3CCC[C@H]1[C@H]23`, the TGI in experiment [1], in experiment [2], in experiment [3], in experiment [4], in experiment [5] and in experiment [6] was greater than 100 µM in each case. Moreover, the TGI in experiment [7], in [8], in [9] and in experiment [10] was greater than 100 µM throughout.
In the case of `CCCCc1cc2c(C)cc(=O)oc2c(O)c1O`, the TGI is 40.2 µM in experiment [1]; greater than 100 µM in [2]; 46.5 µM in experiment [3]; 56.4 µM in [4]; 88.9 µM in experiment [5]; 62.2 µM in [6]. In addition, the TGI in [7] is greater than 100 µM; in experiment [8], greater than 100 µM; in experiment [9] it was 67.3 µM; in [10], greater than 100 µM.
Take `Cc1ccncc1.F[B-](F)(F)F.[Pt+2].c1ccc(-c2cccc(-c3ccccn3)n2)nc1`: the TGI was greater than 100 µM in experiment [1]; greater than 75.7 µM in experiment [2]; 21.7 µM in [3]; 11.7 µM in [4]; 20.1 µM in [5]; 42.6 µM in [6]. Besides, the TGI in experiment [7] was greater than 100 µM; in experiment [8], greater than 66.7 µM; in experiment [9], 7.74 µM; in experiment [10] it was 39.1 µM.
As to `O=C(CCN1CCCC1)Nc1ccc2sc3ccccc3c(=O)c2n1`, the TGI worked out at 23.7 µM in experiment [1]; 17.9 µM in [2]; 16.4 µM in experiment [3]; 21.4 µM in experiment [4]; 17.6 µM in experiment [5]; 19.9 µM in experiment [6]. The TGI in [7] came out at 18 µM; in [8], 19.6 µM; in experiment [9], 27.8 µM; in experiment [10], 17.7 µM.
Turning to `COc1cccc(CC(C)NCC(O)c2ccc(O)c(O)c2)c1` (centres undefined), the TGI is 67.4 µM in experiment [1]; greater than 100 µM in experiment [2]; greater than 100 µM in experiment [3]; greater than 100 µM in experiment [4]; greater than 100 µM in experiment [5]; greater than 100 µM in experiment [6]. For the same molecule, the TGI is greater than 100 µM in experiment [7], greater than 100 µM in experiment [8], greater than 100 µM in experiment [9] and 51.7 µM in experiment [10].
Turning to `O=C(NCc1cccc(C(F)(F)F)c1)c1cc2sccc2nc1C(F)(F)F`, the TGI in [1], in experiment [2], in experiment [3], in experiment [4], in experiment [5] and in experiment [6] was greater than 100 µM each time. Besides, the TGI in [7], in experiment [8], in [9] and in experiment [10] was greater than 100 µM throughout.
In the case of `O=[N+]([O-])c1c(Br)cc(Br)c2c1Nc1c(ccc(Cl)c1Cl)S2`, the TGI in [1] is greater than 26.8 µM; in experiment [2], 39.5 µM; in [3], 30.2 µM; in experiment [4] it was 75.1 µM; in experiment [5], 27.7 µM; in [6], 25.7 µM. Moreover, the TGI in [7] is 39.2 µM; in experiment [8], 35.1 µM; in experiment [9] it was 39.1 µM; in [10] it was 7.6 µM.
With `Cc1ccc(C(=O)N/N=C(\N=Nc2cccc(Cl)c2)c2ccc(N(CCC#N)CCC#N)cc2C)cc1`, the TGI in experiment [1], in experiment [2], in experiment [3], in experiment [4], in experiment [5] and in experiment [6] was greater than 100 µM throughout. The TGI in experiment [7], in [8], in experiment [9] and in experiment [10] was greater than 100 µM each time.
With `CCNc1ccc2c(c1)Cc1ccccc1-2`, the TGI in [1], in [2], in experiment [3], in experiment [4], in experiment [5] and in [6] was greater than 100 µM throughout. Besides, the TGI in [7], in experiment [8], in experiment [9] and in experiment [10] was greater than 100 µM each time.
Regarding `N#Cc1nc(CCCCCN2C(=O)c3ccccc3C2=O)oc1N`, the TGI in [1], in [2], in experiment [3], in [4], in experiment [5] and in [6] was greater than 100 µM throughout. The TGI in [7], in experiment [8], in [9] and in [10] was greater than 100 µM in each case.
As for `CCOC(=O)c1c(N2CCCC2)ncn(-c2ccccc2)c1=S`, the TGI in [1], in experiment [2], in [3], in experiment [4], in experiment [5] and in experiment [6] was greater than 100 µM each time. Further, the TGI in [7], in experiment [8], in [9] and in experiment [10] was greater than 100 µM in each case.
`Nc1ncnc2c1ncn2C1CCC(COS(N)(=O)=O)C1` (centres undefined): the TGI in experiment [1], in experiment [2], in [3], in experiment [4], in [5] and in [6] was greater than 100 µM in each case. The TGI in experiment [7], in experiment [8], in [9] and in experiment [10] was greater than 100 µM in each case.
For `O=[N+]([O-])c1ccc2nc(-c3ccccn3)c(-c3ccccn3)nc2c1`, the TGI in [1], in experiment [2], in experiment [3], in experiment [4], in experiment [5] and in experiment [6] was greater than 100 µM in each case. For the same molecule, the TGI in [7], in [8], in [9] and in experiment [10] was greater than 100 µM in each case.
In the case of `NC(=S)N/N=C\c1ccc(OCc2cccc(COc3ccc(/C=N/NC(N)=S)cc3)n2)cc1`, the TGI in experiment [1] is greater than 100 µM; in [2], greater than 100 µM; in experiment [3] it was 24.4 µM; in [4] it was greater than 100 µM; in [5] it was greater than 100 µM; in [6] it was greater than 100 µM. Besides, the TGI in experiment [7] was 38.1 µM; in [8], greater than 100 µM; in [9], greater than 100 µM; in experiment [10] it was greater than 100 µM.

For the origin of these results see PubChem BioAssay (NCI).
